Experimental data as given in patent publication US6355799B1, “Substituted benzene compounds, process for their preparation, and herbicidal and defoliant compositions containing them” (ISK Americas Incorporated, priority 1997, dated 2002).

How the values were obtained:
Format in all cases: in vivo
[1] = test system: barnyardgrass (Echinochloa crus-galli, ECHCG); test: Pre-emerge test, greenhouse herbicide activity screening; settings: pre-emerge, 14 days after application, scale 0-100
In short: (§1)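 Rating: 0–100 visual injury, 14 DAA. Application: acetone, 187 l/ha, 15–1000 g ai/ha, flat-fan track sprayer with nozzle 40–45 cm above soil or canopy. Post-emerge runs used 0.25% v/v surfactant on 2–3 leaf plants.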

[2] = test system: lambsquarters (Chenopodium album, CHEAL); test: as above; settings: pre-emerge, 14 days after application, scale 0-100
In short: as §1

[3] = test system: green foxtail (Setaria viridis, SETVI); test: as above; settings: pre-emerge, 14 days after application, scale 0-100
In short: as §1

[4] = test system: ivyleaf morningglory (Ipomoea hederacea, IPOHE); test: as above; settings: pre-emerge, 14 days after application, scale 0-100
In short: as §1

[5] = test system: large crabgrass (Digitaria sanguinalis, DIGSA); test: as above; settings: pre-emerge, 14 days after application, scale 0-100
In short: as §1

[6] = test system: velvetleaf (Abutilon theophrasti, ABUTH); test: as above; settings: pre-emerge, 14 days after application, scale 0-100
In short: as §1

[7] = test system: sicklepod (Cassia obtusifolia, CASOB); test: as above; settings: pre-emerge, 14 days after application, scale 0-100
In short: as §1

[8] = test system: field corn (Zea mays L., var. Dekalb 535, CORN); test: Pre-emerge test, crop safety; settings: pre-emerge, 14 days after application, scale 0-100
In short: (§2)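 Sandy loam pots; pre-emerge: sown 1 d pre-spray, surface-watered after, then bottom-watered. Post-emerge: sown 8–21 d before, 2–3 leaf stage, + 0.25% v/v NIS, bottom-watered. Acetone, 187 l/ha track spray, 15–1000 g ai/ha. 0–100 injury score, day 14.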

[9] = test system: upland rice (Oryza sp., var. Tebonnet, RICE); test: Pre-emerge test, crop safety; settings: pre-emerge, 14 days after application, scale 0-100
In short: as §2

[10] = test system: barnyardgrass (Echinochloa crus-galli, ECHCG); test: Post-emerge test, greenhouse herbicide activity screening; settings: post-emerge, 14 days after application, rating scale 0-100
In short: (§3)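 Visual ratings on a 0-100 scale (0 no damage, 100 all plants dead) were taken at 14 days after treatment. Rates of 15-1000 g ai/ha in acetone, 187 l/ha, were sprayed onto soil one day after planting (pre-emerge) or onto 2-3 leaf plants with 0.25% v/v surfactant (post-emerge).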

[11] = test system: redroot pigweed (Amaranthus retroflexus, AMARE); test: as above; settings: post-emerge, 14 days after application, rating scale 0-100
In short: as §3

[12] = test system: lambsquarters (Chenopodium album, CHEAL); test: as above; settings: post-emerge, 14 days after application, rating scale 0-100
In short: as §3

[13] = test system: green foxtail (Setaria viridis, SETVI); test: as above; settings: post-emerge, 14 days after application, rating scale 0-100
In short: as §3

[14] = test system: ivyleaf morningglory (Ipomoea hederacea, IPOHE); test: as above; settings: post-emerge, 14 days after application, rating scale 0-100
In short: as §3

[15] = test system: large crabgrass (Digitaria sanguinalis, DIGSA); test: as above; settings: post-emerge, 14 days after application, rating scale 0-100
In short: as §3

[16] = test system: velvetleaf (Abutilon theophrasti, ABUTH); test: as above; settings: post-emerge, 14 days after application, rating scale 0-100
In short: as §3

[17] = test system: sicklepod (Cassia obtusifolia, CASOB); test: as above; settings: post-emerge, 14 days after application, rating scale 0-100
In short: as §3

[18] = test system: redroot pigweed (Amaranthus retroflexus, AMARE); test: Pre-emerge test, greenhouse herbicide activity screening; settings: pre-emerge, 14 days after application, scale 0-100
In short: as §3

[19] = test system: field corn (Zea mays L., var. Dekalb 535, CORN); test: Post-emerge test, crop safety; settings: post-emerge, 14 days after application, rating scale 0-100
In short: (§4)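 Plants grown in 10 cm pots of sandy loam mix received acetone-dissolved compounds through a moving flat-fan nozzle. Doses ranged from 15 to 1000 g ai/ha. Pre-emerge pots were seeded one day earlier, post-emerge pots 8–21 days earlier. Fourteen days on, each pot was graded 0–100 for damage.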

[20] = test system: upland rice (Oryza sp., var. Tebonnet, RICE); test: Post-emerge test, crop safety; settings: post-emerge, 14 days after application, rating scale 0-100
In short: as §4

For `C=Cc1ccc(C(=O)N(C(=O)c2ccc(C=C)cc2)c2c(OC)c(Br)cc(F)c2-n2c(=O)cc(C(F)(F)F)n(C)c2=O)cc1` [2-183], the “phytotoxicity rating ECHCG” value ([1]; 63 g ai/ha) was 0, the “phytotoxicity rating ECHCG” value ([1]; 250 g ai/ha) was 0 and the “phytotoxicity rating CHEAL” value ([2]; 63 g ai/ha) was 0. The “phytotoxicity rating CHEAL” value ([2]; 250 g ai/ha) was 40, the “phytotoxicity rating SETVI” value ([3]; 63 g ai/ha) was 0 and the “phytotoxicity rating SETVI” value ([3]; 250 g ai/ha) was 0. For the same compound, the “phytotoxicity rating IPOHE” value ([4]; 63 g ai/ha) was 0, the “phytotoxicity rating IPOHE” value ([4]; 250 g ai/ha) was 0 and the “phytotoxicity rating DIGSA” value ([5]; 63 g ai/ha) was 0. For the same compound, the “phytotoxicity rating DIGSA” value ([5]; 250 g ai/ha) was 0, the “phytotoxicity rating ABUTH” value ([6]; 63 g ai/ha) was 0 and the “phytotoxicity rating ABUTH” value ([6]; 250 g ai/ha) was 10. The “phytotoxicity rating CASOB” value ([7]; 63 g ai/ha) was 0, the “phytotoxicity rating CASOB” value ([7]; 250 g ai/ha) was 0 and the “phytotoxicity rating CORN (crop damage)” value ([8]; 63 g ai/ha) was 0. The “phytotoxicity rating CORN (crop damage)” value ([8]; 250 g ai/ha) was 0, the “phytotoxicity rating RICE (crop damage)” value ([9]; 63 g ai/ha) was 0 and the “phytotoxicity rating RICE (crop damage)” value ([9]; 250 g ai/ha) was 0. For the same compound, the ECHCG phytotoxicity rating ([10]; 63 g ai/ha) was 0, the ECHCG phytotoxicity rating ([10]; 250 g ai/ha) was 0 and the AMARE phytotoxicity rating ([11]; 63 g ai/ha) was 0. For the same compound, the AMARE phytotoxicity rating ([11]; 250 g ai/ha) was 10, the CHEAL phytotoxicity rating ([12]; 63 g ai/ha) was 0 and the CHEAL phytotoxicity rating ([12]; 250 g ai/ha) was 80. The SETVI phytotoxicity rating ([13]; 63 g ai/ha) was 0, the SETVI phytotoxicity rating ([13]; 250 g ai/ha) was 0 and the IPOHE phytotoxicity rating ([14]; 63 g ai/ha) was 0. For the same compound, the IPOHE phytotoxicity rating ([14]; 250 g ai/ha) was 40, the DIGSA phytotoxicity rating ([15]; 63 g ai/ha) was 0 and the DIGSA phytotoxicity rating ([15]; 250 g ai/ha) was 0. It also gave an ABUTH phytotoxicity rating ([16]; 63 g ai/ha) of 0, an ABUTH phytotoxicity rating ([16]; 250 g ai/ha) of 50 and a CASOB phytotoxicity rating ([17]; 63 g ai/ha) of 0. The CASOB phytotoxicity rating ([17]; 250 g ai/ha) was 0, the “phytotoxicity rating AMARE” value ([18]; 63 g ai/ha) was 0 and the “phytotoxicity rating AMARE” value ([18]; 250 g ai/ha) was 30. The “CORN phytotoxicity rating (crop damage)” value ([19]; 63 g ai/ha) was 0, the “CORN phytotoxicity rating (crop damage)” value ([19]; 250 g ai/ha) was 0 and the “RICE phytotoxicity rating (crop damage)” value ([20]; 63 g ai/ha) was 0. For the same compound, the “RICE phytotoxicity rating (crop damage)” value ([20]; 250 g ai/ha) was 0.
